How the values were obtained:
Type in all cases: in vivo, human
[1] = system: patients with non-cystic fibrosis bronchiectasis (NCFBE); assay: Phase 2 randomized, double-blind, placebo-controlled trial: pulmonary exacerbations; details: for reduction in the frequency of pulmonary exacerbations as compared to placebo: once daily 24 weeks; for time to the first pulmonary exacerbation (primary end point): vs placebo
Excerpt: We have conducted a phase 2, randomized, double-blind, placebo-controlled trial to assess the efficacy, safety and tolerability, and pharmacokinetics of (2S)—N-{(1S)-1-cyano-2-[4-(3-methyl-2-oxo-2,3-dihydro-1,3-benzoxazol-5-yl) phenyl] ethyl}-1,4-oxazepane-2-carboxamide (brensocatib) administered once daily for 24 weeks in patients with non-cystic fibrosis bronchiectasis (NCFBE). See the details and results of the trial in N Engl J Med. 383(22):2127-2137 (2020); incorporated herein by reference in its entirety for all purposes.
In the trial, subjects were randomized in a 1:1:1 ratio to 3 treatment arms to receive either (i) 10 mg brensocatib once daily; (ii) 25 mg brensocatib once daily, or (iii) matching placebo once daily. Following a screening visit (Visit 1) and a screening period of up to 6 weeks, subjects were randomized at Visit 2 (Day 1, “Baseline”) and returned thereafter for study visits at 2 weeks (Visit 3), 4 weeks (Visit 4), 8 weeks (Visit 5), 12 weeks (Visit 6), 16 weeks (Visit 7), 20 weeks (Visit 8), 24 weeks (Visit 9, end of treatment) and 28 weeks (Visit 10, end of study). During each visit, assessments and procedures were performed, including collection of blood and sputum samples at baseline and weeks 2, 4, 12, 24, and 28 for biomarker assessment. Study treatment occurred between Visits 2-9. The time to the first pulmonary exacerbation (primary end point), the rate of pulmonary exacerbations (secondary end point), change in concentration of active NE in sputum, and safety were assessed. […] Specifically, patients treated with brensocatib experienced a 36% reduction in the 10 mg arm (p=0.04) and a 25% reduction in the 25 mg arm (p=0.17).

active NE [2] = assay: Active NE concentration in patients' sputum samples; details: for % reduction from baseline in sputum samples, active NE: week 4, reduction in geometric mean
Procedure: (§1) In the NE kinetic assay, an exogenous peptide substrate with high specificity for NE (shown in Table 1A) was cleaved by NE present in the sample, generating a fluorophore reaction product 7-amino 4-methyl coumarin (AMC). The initial rate of this reaction, which is proportional to the amount of active NE in the sample, was measured in relative fluorescence units (RFU) and converted to the concentration of active NE in the sample. Specifically, standards were created via serial dilution of Human NE Stock Protein (Sigma, Cat. No E8140-1UN, see Table 1A) in a standard diluent, which matched the ratio of lysis buffer to Enzyme Buffer (sample diluent) of the sample dilutions on a multi-well plate. Sample dilutions were created on the plate using Enzyme Buffer as the diluent. A 1:25 dilution of either DMSO or NE inhibitor (Abcam, Cat. No ab142154, final concentration 80 μM) in Assay Buffer was added to all wells and allowed to incubate at 37° C. for 15 minutes. […] The plate was immediately read at 350/450 nm (Excitation/Emission) post substrate addition in kinetic mode every 5 minutes for up to 3 hours (minimum 30 minutes) at 37° C. on a BioTek Gen5 Plate Reader. The raw data of the readings were exported into an Excel file for data analysis described below.
(§2) In the trial, subjects were randomized in a 1:1:1 ratio to 3 treatment arms to receive either (i) 10 mg brensocatib once daily; (ii) 25 mg brensocatib once daily, or (iii) matching placebo once daily. […] The time to the first pulmonary exacerbation (primary end point), the rate of pulmonary exacerbations (secondary end point), change in concentration of active NE in sputum, and safety were assessed. […]
(§3) In this example, we further determined the changes from baseline in the concentrations of active PR3 and CatG in the same sputum samples obtained from the patients in the three treatment arms using the kinetic PR3 and CatG assays described in the previous examples, and compared the changes with those of active NE. […]

active PR3 [3] = assay: Active PR3 concentration in patients' sputum samples (kinetic PR3 assay); details: for % reduction from baseline in sputum samples, active PR3: week 4, reduction in geometric mean
Procedure: Except for using an exogenous peptide substrate specific for PR3 instead of NE, the PR3 kinetic assay is based on the same principle as the NE kinetic assay described above. Cleavage of PR3 Substrate by PR3 present in the sample generated the fluorophore reaction product 2-Aminobenzoyl or Anthraniloyl (Abz). The initial rate of this reaction, which is proportional to the amount of active PR3 in the sample, was measured in RFU and converted to the concentration of active PR3 in the sample. Specifically, standards were created via serial dilution of Human PR3 Stock Protein (Sigma, Cat. No SRP6309-25UG, see Table 1A) in a standard diluent which matched the ratio of lysis buffer to Enzyme Buffer (sample diluent) of the sample dilutions on a multi-well plate. Sample dilutions were created on the plate using Enzyme Buffer as the diluent. A 1:20 dilution of either DMSO or PR3 inhibitor (Abcam, Cat. No ab146184, final concentration 500 μM) in Assay Buffer was added to all wells and allowed to incubate at 37° C. for 15 minutes. […] The plate was immediately read at 340/430 nm (Excitation/Emission) post substrate addition in kinetic mode every 5 minutes for up to 3 hours (minimum 30 minutes) at 37° C. on a BioTek Gen5 Plate Reader. The raw data of the readings were exported into an Excel file for data analysis described below.
as §2, §3

active CatG = assay: Active CatG concentration in patients' sputum samples (kinetic CatG assay); details: for % reduction from baseline in sputum samples, active CatG: week 4, reduction in geometric mean
Procedure: CatG activity was measured in an enzymatic assay using an exogenous peptide substrate. Cleavage of the substrate generated the chromophore or fluorophore reaction product, p-Nitroaniline (pNA), 6-Carboxytetramethylrhodamine (6-TAMRA) or 7-Methoxycoumarin-4-acetic acid (MCA). The initial rate of this reaction is proportional to the amount of active CatG in a sample and was measured in absorbance (ABS) or fluorescence (RFU), depending on the substrate, and converted to the concentration of active CatG in the sample. Specifically, standards were created via serial dilution of stock human CatG protein (Sigma, Cat. No C4428-.25UN) in a standard diluent which matched the ratio of lysis buffer to Enzyme Buffer (sample diluent) of the sample dilutions on plate. Sample dilutions were created on the plate using Enzyme Buffer as the diluent and/or run neat. […] The plate was immediately read at appropriate wavelength according to Table 1B post substrate addition in kinetic mode every 5 minutes for 1.5 hours at 37° C. on a BioTek's Synergy Neo or BioTek's Synergy HIM plate reader with Gen5 Software. […]
as §2
as §3, with “NE. Additionally, we extracted NE and PR3 from the white blood cells (WBCs) derived from the patients' blood samples, and determined the changes from baseline in the concentrations of active NE and PR3 in the WBC samples using the methods described in Example 7.” for “NE.”

active NE [4] = assay: Active NE concentration in patients' WBC samples (kinetic NE assay)
Procedure: as §1
(§4) After NE and PR3 are extracted from a WBC pellet using a multi-step repeated pellet lysis process, total NE and PR3 activity in cell lysates may be determined by individually assaying each cell lysate from each lysis step for the enzyme activity and calculating the total activity. Alternatively, the total activity may be determined by pooling the cell lysates for a single NE or PR3 activity assay. […]
as §2

active PR3 [5] = assay: Active PR3 concentration in patients' WBC samples (kinetic PR3 assay); details: for % reduction from baseline in WBC samples, active PR3: week 4, reduction in arithmetic mean
Procedure: Except for using an exogenous peptide substrate specific for PR3 instead of NE, the PR3 kinetic assay is based on the same principle as the NE kinetic assay described above. Cleavage of PR3 Substrate by PR3 present in the sample generated the fluorophore reaction product 2-Aminobenzoyl or Anthraniloyl (Abz). The initial rate of this reaction, which is proportional to the amount of active PR3 in the sample, was measured in RFU and converted to the concentration of active PR3 in the sample. Specifically, standards were created via serial dilution of Human PR3 Stock Protein (Sigma, Cat. No SRP6309-25UG, see Table 1A) in a standard diluent which matched the ratio of lysis buffer to Enzyme Buffer (sample diluent) of the sample dilutions on a multi-well plate. Sample dilutions were created on the plate using Enzyme Buffer as the diluent. A 1:20 dilution of either DMSO or PR3 inhibitor (Abcam, Cat. No ab146184, final concentration 500 μM) in Assay Buffer was added to all wells and allowed to incubate at 37° C. for 15 minutes. Addition of DMSO was used as a placeholder in case future testing required addition of inhibitors for subtraction of nonspecific activity-induced cleavage. Following incubation, PR3 Substrate (Abz-VADCADQ-Lys(DNP), final concentration 100 μM) diluted in Assay Buffer was added to the sample and control wells in that order, and briefly mixed via pipetting 2-3 times. The plate was immediately read at 340/430 nm (Excitation/Emission) post substrate addition in kinetic mode every 5 minutes for up to 3 hours (minimum 30 minutes) at 37° C. on a BioTek Gen5 Plate Reader. The raw data of the readings were exported into an Excel file for data analysis described below.
as §4

## Cn1c(=O)oc2ccc(-c3ccc(C[C@@H](C#N)NC(=O)[C@@H]4CNCCCO4)cc3)cc21 [brensocatib, (2S)—N-{(1S)-1-cyano-2-[4-(3-methyl-2-oxo-2,3-dihydro-1,3-benzoxazol-5-yl)phenyl]ethyl}-1,4-oxazepane-2-carboxamide]
[1]; 10 mg arm, p=0.04
  reduction in the frequency of pulmonary exacerbations as compared to placebo: 36%
[1]; 10 mg once daily for 24 weeks, p=0.03
  time to the first pulmonary exacerbation (primary end point): prolonged the time to the first exacerbation
[1]; 25 mg arm, p=0.17
  reduction in the frequency of pulmonary exacerbations as compared to placebo: 25%
[1]; 25 mg once daily for 24 weeks, p=0.04
  time to the first pulmonary exacerbation (primary end point): prolonged the time to the first exacerbation
Active NE [2]; 10 mg and 25 mg arms, FIG. 13A
  change from baseline in sputum concentration of active NE (time course): reduced by brensocatib treatment by week 4 in a dose-dependent manner
Active NE [2]; 10 mg daily
  % reduction from baseline in sputum samples, active NE: 86%
Active NE [2]; 25 mg daily
  % reduction from baseline in sputum samples, active NE: 91%
Active PR3 [3]; 10 mg and 25 mg arms, FIG. 13B
  change from baseline in sputum concentration of active PR3 (time course): reduced by brensocatib treatment by week 4 in a dose-dependent manner
Active PR3 [3]; 10 mg daily
  % reduction from baseline in sputum samples, active PR3: 21%
Active PR3 [3]; 25 mg daily
  % reduction from baseline in sputum samples, active PR3: 53%
Active CatG; 10 mg and 25 mg arms, FIG. 13C
  change from baseline in sputum concentration of active CatG (time course): reduced by brensocatib treatment by week 4 in a dose-dependent manner
Active CatG; 10 mg daily
  % reduction from baseline in sputum samples, active CatG: 90%
Active CatG; 25 mg daily
  % reduction from baseline in sputum samples, active CatG: 93%
Active NE [4]; 10 mg and 25 mg arms, 24-week treatment, FIG. 14A
  change from baseline in concentration of active NE in WBC samples (time course): reduced by brensocatib treatment by week 4 in a dose-dependent manner
Active NE [4]; 10 mg daily, week 4, reduction in arithmetic mean
  % reduction from baseline in WBC samples, active NE: 19%
Active NE [4]; after 24-week treatment, FIG. 14A
  time for reduced active NE concentrations in WBC samples to recover to baseline levels after the end of the treatment period: about 4 weeks
Active PR3 [5]; 10 mg and 25 mg arms, FIG. 14B
  change from baseline in concentration of active PR3 in WBC samples (time course): reduced by brensocatib treatment to a lesser extent than the active NE concentrations
Active PR3 [5]; 10 mg daily
  % reduction from baseline in WBC samples, active PR3: No reduction
Active PR3 [5]; 25 mg daily
  % reduction from baseline in WBC samples, active PR3: 34%

From patent US20230310453A1, “METHODS FOR EXTRACTING NEUTROPHIL SERINE PROTEASES AND TREATING DIPEPTIDYL PEPTIDASE 1-MEDIATED CONDITIONS” (INSMED, INC., priority 2020, published 2023)
